Drawing on patent publication US20240262826A1, “WILD TYPE KIT INHIBITORS” (Blueprint Medicines Corporation, priority 2022, published 2024), this text covers IC50 for 26 molecules.

wild type c-kit, sequence (P10721 26-976): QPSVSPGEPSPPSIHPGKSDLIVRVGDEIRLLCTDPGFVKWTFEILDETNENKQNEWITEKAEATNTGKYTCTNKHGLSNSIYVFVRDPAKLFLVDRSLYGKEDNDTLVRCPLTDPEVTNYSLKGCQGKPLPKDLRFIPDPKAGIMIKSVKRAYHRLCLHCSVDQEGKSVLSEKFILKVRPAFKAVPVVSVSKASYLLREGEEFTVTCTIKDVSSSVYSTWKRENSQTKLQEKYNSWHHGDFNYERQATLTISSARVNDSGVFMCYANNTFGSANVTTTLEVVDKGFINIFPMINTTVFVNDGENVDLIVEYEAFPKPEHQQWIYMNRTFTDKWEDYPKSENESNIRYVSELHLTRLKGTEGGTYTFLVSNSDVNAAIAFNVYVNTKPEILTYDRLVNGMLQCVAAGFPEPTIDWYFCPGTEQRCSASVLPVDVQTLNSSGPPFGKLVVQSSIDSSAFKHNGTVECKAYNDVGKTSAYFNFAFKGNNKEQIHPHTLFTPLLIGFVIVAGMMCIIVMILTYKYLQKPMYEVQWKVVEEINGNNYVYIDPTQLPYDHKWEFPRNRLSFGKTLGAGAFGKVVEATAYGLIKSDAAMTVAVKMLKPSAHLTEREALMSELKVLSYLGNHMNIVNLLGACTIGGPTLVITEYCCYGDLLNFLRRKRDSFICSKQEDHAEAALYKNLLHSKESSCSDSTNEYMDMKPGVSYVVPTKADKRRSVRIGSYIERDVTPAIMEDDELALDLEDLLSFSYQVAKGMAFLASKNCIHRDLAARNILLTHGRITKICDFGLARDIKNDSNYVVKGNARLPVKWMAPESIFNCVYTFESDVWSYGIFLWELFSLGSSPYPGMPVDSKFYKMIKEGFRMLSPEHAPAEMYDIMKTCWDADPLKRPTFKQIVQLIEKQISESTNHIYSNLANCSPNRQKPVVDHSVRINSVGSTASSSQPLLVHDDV

The assay has as its target wild type c-kit (Homo sapiens (Human), UniProt P10721). As to the kind of experiment: PathScan phospho c-kit (Tyr719) sandwich ELISA in SCF-stimulated M-07e cells (pKIT assay). It is filed as cell-based. Particulars: ELISA assay (values not marked *). In outline: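 Tyr719-phosphorylated c-kit was measured by colorimetric (TMB) sandwich ELISA in lysates of M-07e cells. Cells were starved 4 h without serum or GM-CSF, dosed 60 min at 37 °C with compound (8 points, duplicate, 0.25% DMSO), and stimulated 10 min with human SCF (500 ng/mL as added). IC50 values came from 4-parameter logistic regression.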
(In an ELISA, binding on a coated surface is turned into a signal by an enzyme label.)
`[2H]C([2H])([2H])N1CCN(c2ccn3ncc(C(=O)Nc4cc(-n5ncc(C6CN(C(=O)OC)C6)n5)ccc4C)c3c2)CC1` [Example 82, methyl 3-(2-(4-methyl-3-(5-(4-(methyl-d3)piperazin-1-yl)pyrazolo[1,5-a]pyridine-3-carboxamido)phenyl)-2H-1,2,3-triazol-4-yl)azetidine-1-carboxylate]: the half-maximal inhibitory concentration (IC50) (usually the concentration that gives 50% inhibition) came to 23.4 nM.

With `Cc1ccc(-c2nnn(C3CN(S(C)(=O)=O)C3)n2)cc1NC(=O)c1cnn2ccc(CCC(C)(C)O)cc12` [Example 155, 5-(3-hydroxy-3-methylbutyl)-N-(2-methyl-5-(2-(1-(methylsulfonyl)azetidin-3-yl)-2H-tetrazol-5-yl)phenyl)pyrazolo[1,5-a]pyridine-3-carboxamide], inhibition was half-maximal at 55.9 nM (IC50). This IC50 is about 2.4-fold higher than that of the molecule before.

The molecule `COCCNc1ccn2ncc(C(=O)Nc3cc(-c4nnn([C@H]5C[C@H](CO)C5)n4)ccc3C)c2c1` [Example 201, N-(5-(2-((1r,3r)-3-(hydroxymethyl)cyclobutyl)-2H-tetrazol-5-yl)-2-methylphenyl)-5-((2-methoxyethyl)amino)pyrazolo[1,5-a]pyridine-3-carboxamide] displayed an IC50 of 15.6 nM.

The molecule `Cc1nnn(-c2ccc(C)c(NC(=O)c3cnn4ccc(-c5c(C)nn(CC(C)(C)O)c5C)cc34)c2)n1` [Example 244, 5-(1-(2-hydroxy-2-methylpropyl)-3,5-dimethyl-1H-pyrazol-4-yl)-N-(2-methyl-5-(5-methyl-2H-tetrazol-2-yl)phenyl)pyrazolo[1,5-a]pyridine-3-carboxamide] had a concentration for half-maximal inhibition (IC50) of 0.4 nM.

As to `COCC(C)Nc1ccn2ncc(C(=O)Nc3cc(-c4nnn(C5CN(C(=O)OC)C5)n4)ccc3C)c2c1` (stereo in doubt) [Example 128, methyl (S)-3-(5-(3-(5-((1-methoxypropan-2-yl)amino)pyrazolo[1,5-a]pyridine-3-carboxamido)-4-methylphenyl)-2H-tetrazol-2-yl)azetidine-1-carboxylate], the IC50 was 47.4 nM. This IC50 lies about 120-fold higher than the previous one.

`CCNc1ccn2ncc(C(=O)Nc3cc(-c4nnn(C5CN(C(=O)OCC)C5)n4)ccc3C)c2c1` [Example 130, ethyl 3-(5-(3-(5-(ethylamino)pyrazolo[1,5-a]pyridine-3-carboxamido)-4-methylphenyl)-2H-tetrazol-2-yl)azetidine-1-carboxylate]: 34.7 nM corresponded to half-maximal inhibition (IC50).

As to `O=C(Nc1cc(-c2nnn(C3CC(F)(F)C3)n2)c(F)cc1Cl)c1cnn2ccc(N3CCOCC3)cc12` [Example 63, N-(2-chloro-5-(2-(3,3-difluorocyclobutyl)-2H-tetrazol-5-yl)-4-fluorophenyl)-5-morpholinopyrazolo[1,5-a]pyridine-3-carboxamide], the IC50 was determined as 10.5 nM.

`Cc1cc(F)c(-c2nnn(C3CC3)n2)cc1NC(=O)c1cnn2ccc(-c3cn(C[C@@H](C)O)nc3C)cc12` [Example 255, (R)-N-(5-(2-cyclopropyl-2H-tetrazol-5-yl)-4-fluoro-2-methylphenyl)-5-(1-(2-hydroxypropyl)-3-methyl-1H-pyrazol-4-yl)pyrazolo[1,5-a]pyridine-3-carboxamide] returned a concentration for half-maximal inhibition (IC50) of 0.3 nM.

As for `COC(=O)N1CC(n2nnc(-c3ccc(C)c(NC(=O)c4cnn5ccc(N6CCC(F)(F)C6)cc45)c3)n2)C1` [Example 67, methyl 3-(5-(3-(5-(3,3-difluoropyrrolidin-1-yl)pyrazolo[1,5-a]pyridine-3-carboxamido)-4-methylphenyl)-2H-tetrazol-2-yl)azetidine-1-carboxylate], the IC50 came to 22.7 nM.

For `Cc1ccc(-c2nnn(CCCC(F)(F)F)n2)cc1NC(=O)c1cnn2ccccc12` [Example 1, N-(2-methyl-5-(2-(4,4,4-trifluorobutyl)-2H-tetrazol-5-yl)phenyl)pyrazolo[1,5-a]pyridine-3-carboxamide], the IC50 is 3.8 nM.

In turn, `Cc1ccc(-c2nnn(C3CC3)n2)cc1NC(=O)c1cnn2ccc(-c3cnn(C[C@H]4CNCCO4)c3)cc12` [Example 229, (R)-N-(5-(2-cyclopropyl-2H-tetrazol-5-yl)-2-methylphenyl)-5-(1-(morpholin-2-ylmethyl)-1H-pyrazol-4-yl)pyrazolo[1,5-a]pyridine-3-carboxamide] registered an IC50 of 0.7 nM.

The molecule `COC(=O)N1CC(n2nnc(-c3ccc(C)c(NC(=O)c4cnn5ccc(N6CCN(C7COC7)CC6)cc45)c3)n2)C1` [Example 74, methyl 3-(5-(4-methyl-3-(5-(4-(oxetan-3-yl)piperazin-1-yl)pyrazolo[1,5-a]pyridine-3-carboxamido)phenyl)-2H-tetrazol-2-yl)azetidine-1-carboxylate] yielded an IC50 of 63.9 nM.

The molecule `COC(=O)N1CC(n2nnc(-c3ccc(C)c(NC(=O)c4cnn5ccc(NCC(F)F)cc45)c3)n2)C1` [Example 131, methyl 3-(5-(3-(5-((2,2-difluoroethyl)amino)pyrazolo[1,5-a]pyridine-3-carboxamido)-4-methylphenyl)-2H-tetrazol-2-yl)azetidine-1-carboxylate] displayed an IC50 of 49 nM. The IC50 values of the last two molecules are within 1.5-fold of each other.

With `Cc1ccc(-c2nnn(C3CN(CC(F)(F)F)C3)n2)cc1NC(=O)c1cnn2ccccc12` [Example 196, N-(2-methyl-5-(2-(1-(2,2,2-trifluoroethyl)azetidin-3-yl)-2H-tetrazol-5-yl)phenyl)pyrazolo[1,5-a]pyridine-3-carboxamide], half-maximal inhibition (IC50) was put at 9.1 nM.

Regarding `COC(=O)N1CC(n2nnc(-c3cc(NC(=O)c4cnn5cc(N6CCOCC6)ccc45)c(C)cc3F)n2)C1` [Example 224, methyl 3-(5-(2-fluoro-4-methyl-5-(6-morpholinopyrazolo[1,5-a]pyridine-3-carboxamido)phenyl)-2H-tetrazol-2-yl)azetidine-1-carboxylate], the 50% inhibitory concentration (IC50) came out at 27 nM. This IC50 lies about 3-fold higher than the previous one.

`Cc1ccc(-n2nnc(C3CN(S(C)(=O)=O)C3)n2)cc1NC(=O)c1cnn2ccccc12` [Example 190] registered an IC50 of 22.8 nM.

For the molecule `Cn1nnc(-c2ccc(Cl)c(NC(=O)c3cnn4ccc(-c5cnn(CCO)c5)cc34)c2)n1` [Example 218, N-(2-chloro-5-(2-methyl-2H-tetrazol-5-yl)phenyl)-5-(1-(2-hydroxyethyl)-1H-pyrazol-4-yl)pyrazolo[1,5-a]pyridine-3-carboxamide], inhibition was half-maximal at 5.2 nM (IC50). Against the preceding molecule, the IC50 is about 4.4-fold lower.

Molecule `Cc1cc(C)c(-c2nnn(C3CC(F)(F)C3)n2)cc1NC(=O)c1cnn2ccc(N3CCOCC3)cc12` [Example 156, N-(5-(2-(3,3-difluorocyclobutyl)-2H-tetrazol-5-yl)-2,4-dimethylphenyl)-5-morpholinopyrazolo[1,5-a]pyridine-3-carboxamide] registered a half-maximal inhibitory concentration (IC50) of 22.1 nM.

As to `Cc1ccc(-c2nnn(C3CC3)n2)cc1NC(=O)c1cnn2ccc(-c3cnn(CC(C)(C)O)c3)cc12` [Example 242, N-(5-(2-cyclopropyl-2H-tetrazol-5-yl)-2-methylphenyl)-5-(1-(2-hydroxy-2-methylpropyl)-1H-pyrazol-4-yl)pyrazolo[1,5-a]pyridine-3-carboxamide], the IC50 amounted to 0.5 nM. Compared with the last molecule, the IC50 is about 44-fold lower.

With `Cc1nn([C@H](C)[C@@H](C)O)cc1-c1ccn2ncc(C(=O)Nc3cc(-c4nnn(C5CC5)n4)c(F)cc3Cl)c2c1` (single isomer, unassigned) [Example 287, N-(2-chloro-5-(2-cyclopropyl-2H-tetrazol-5-yl)-4-fluorophenyl)-5-(1-((2R,3R)-3-hydroxybutan-2-yl)-3-methyl-1H-pyrazol-4-yl)pyrazolo[1,5-a]pyridine-3-carboxamide or N-(2-chloro-5-(2-cyclopropyl-2H-tetrazol-5-yl)-4-fluorophenyl)-5-(1-((2S,3S)-3-hydroxybutan-2-yl)-3-methyl-1H-pyrazol-4-yl)pyrazolo[1,5-a]pyridine-3-carboxamide], half-maximal inhibition (IC50) was put at 0.9 nM.

Turning to `COC[C@@H](C)Nc1ccn2ncc(C(=O)Nc3cc(-c4nnn(C5CN(C(=O)OC)C5)n4)ccc3C)c2c1` [Example 135, methyl (R)-3-(5-(3-(5-((1-methoxypropan-2-yl)amino)pyrazolo[1,5-a]pyridine-3-carboxamido)-4-methylphenyl)-2H-tetrazol-2-yl)azetidine-1-carboxylate], the IC50 came out at 53.8 nM.

`Cc1nn(C[C@H](O)CO)c(C)c1-c1ccn2ncc(C(=O)Nc3cc(-c4nnn(C5CC5)n4)ccc3Cl)c2c1` [Example 275, (S)-N-(2-chloro-5-(2-cyclopropyl-2H-tetrazol-5-yl)phenyl)-5-(1-(2,3-dihydroxypropyl)-3,5-dimethyl-1H-pyrazol-4-yl)pyrazolo[1,5-a]pyridine-3-carboxamide]: the IC50 came to 0.1 nM.

Regarding `Cc1ccc(-c2nnn(C)n2)cc1NC(=O)c1cnn2ccc(-c3cnn(CCCS(C)(=N)=O)c3)cc12` (centres unmarked) [Example 232, N-(2-methyl-5-(2-methyl-2H-tetrazol-5-yl)phenyl)-5-(1-(3-(S-methylsulfonimidoyl)propyl)-1H-pyrazol-4-yl)pyrazolo[1,5-a]pyridine-3-carboxamide], the IC50 was 26 nM.

On to `CC(C)(O)Cn1cc(-c2ccn3ncc(C(=O)Nc4cc(-n5nnc(C6CC6)n5)ccc4F)c3c2)cn1` [Example 217, N-(5-(5-cyclopropyl-2H-tetrazol-2-yl)-2-fluorophenyl)-5-(1-(2-hydroxy-2-methylpropyl)-1H-pyrazol-4-yl)pyrazolo[1,5-a]pyridine-3-carboxamide], for which inhibition was half-maximal at 8.1 nM (IC50). Compared with the last molecule, the IC50 is about 3.2-fold lower.

In turn, `COCCNc1ccn2ncc(C(=O)Nc3cc(-n4ncc(C5CN(C(=O)OC)C5)n4)ccc3Cl)c2c1` [Example 111, methyl 3-(2-(4-chloro-3-(5-((2-methoxyethyl)amino)pyrazolo[1,5-a]pyridine-3-carboxamido)phenyl)-2H-1,2,3-triazol-4-yl)azetidine-1-carboxylate] gave an IC50 of 11.8 nM.

With `COC(=O)N1CC(n2nnc(-c3ccc(C)c(NC(=O)c4cnn5ccc(N6CCC[C@@H](O)C6)cc45)c3)n2)C1` [Example 71, methyl (R)-3-(5-(3-(5-(3-hydroxypiperidin-1-yl)pyrazolo[1,5-a]pyridine-3-carboxamido)-4-methylphenyl)-2H-tetrazol-2-yl)azetidine-1-carboxylate], 41.6 nM corresponded to half-maximal inhibition (IC50).
